Measurements as given in BindingDB's records for PubMed 11714898 (Creighton University, 2001).
Residues, ends and D or L forms follow the SMILES beside them.

Legend:
[1] = target: Calcitonin gene-related peptide type 1 receptor (Sus scrofa, UniProt Q8WN93)
[2] = target: T1, Receptor activity-modifying protein 1 (Sus scrofa, UniProt Q867C0)
T1 sequence (Q867C0 whole entry): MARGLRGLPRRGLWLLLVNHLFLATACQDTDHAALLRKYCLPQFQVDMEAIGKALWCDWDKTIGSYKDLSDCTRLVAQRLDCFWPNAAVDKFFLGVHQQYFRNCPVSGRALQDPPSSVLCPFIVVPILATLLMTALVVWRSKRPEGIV

Sequence of Calcitonin gene-related peptide type 1 receptor (Q8WN93 whole entry): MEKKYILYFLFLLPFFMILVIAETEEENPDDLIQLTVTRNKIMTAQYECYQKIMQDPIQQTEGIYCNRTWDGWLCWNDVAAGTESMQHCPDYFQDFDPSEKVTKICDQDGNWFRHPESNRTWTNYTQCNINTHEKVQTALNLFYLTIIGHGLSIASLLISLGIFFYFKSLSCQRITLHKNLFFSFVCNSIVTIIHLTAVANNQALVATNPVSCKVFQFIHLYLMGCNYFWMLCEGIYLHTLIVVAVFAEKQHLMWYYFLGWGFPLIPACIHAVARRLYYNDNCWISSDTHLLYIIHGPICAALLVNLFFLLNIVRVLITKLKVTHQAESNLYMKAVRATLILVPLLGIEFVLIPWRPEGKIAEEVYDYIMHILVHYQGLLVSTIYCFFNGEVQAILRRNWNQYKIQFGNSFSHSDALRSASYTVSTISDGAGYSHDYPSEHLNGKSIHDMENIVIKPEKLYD

| SMILES | Ki [1] [nM] | Ki [2] [nM] |
| --- | --- | --- |
| CC(=O)NCSC[C@H](NC(=O)[C@H](C)N)C(=O)N[C@@H](CC(=O)O)C(=O)N[C@H](C(=O)N[C@@H](C)C(=O)N[C@H](C(=O)N[C@@H](CSCNC(C)=O)C(=O)N[C@H](C(=O)N[C@H](C(=O)N[C@@H](Cc1cnc[nH]1)C(=O)N[C@@H](CCCNC(=N)N)C(=O)N[C@@H](CC(C)C)C(=O)N[C@@H](C)C(=O)NCC(=O)N[C@@H](CC(C)C)C(=O)N[C@@H](CC(C)C)C(=O)N[C@@H](CO)C(=O)N[C@@H](CCCNC(=N)N)C(=O)N[C@@H](CO)C(=O)NCC(=O)NCC(=O)N[C@H](C(=O)N[C@H](C(=O)N[C@@H](CCCCN)C(=O)N[C@@H](CC(N)=O)C(=O)N[C@@H](CC(N)=O)C(=O)N[C@@H](Cc1ccccc1)C(=O)N[C@H](C(=O)N1CCC[C@H]1C(=O)N[C@H](C(=O)N[C@@H](CC(N)=O)C(=O)N[C@H](C(=O)NCC(=O)N[C@@H](CO)C(=O)N[C@@H](CCCCN)C(=O)N[C@@H](C)C(=O)N[C@@H](Cc1ccccc1)C(N)=O)C(C)C)[C@@H](C)O)C(C)C)C(C)C)C(C)C)[C@@H](C)O)C(C)C)[C@@H](C)O)[C@@H](C)O [[Cys(ACM)2,7]h alpha-CGRP] | 38.4 | 32 |
| CC(C)C[C@H](NC(=O)CNC(=O)[C@H](C)NC(=O)[C@H](CC(C)C)NC(=O)[C@H](CCCNC(=N)N)NC(=O)[C@H](Cc1cnc[nH]1)NC(=O)[C@@H](NC(=O)[C@@H](NC(=O)[C@@H]1CSSC[C@H](NC(=O)[C@H](C)N)C(=O)N[C@@H](CC(=O)O)C(=O)N[C@@H]([C@@H](C)O)C(=O)N[C@@H](C)C(=O)N[C@@H]([C@@H](C)O)C(=O)N1)C(C)C)[C@@H](C)O)C(=O)N[C@@H](CC(C)C)C(=O)N[C@@H](CO)C(=O)N[C@@H](CCCNC(=N)N)C(=O)N[C@@H](CO)C(=O)NCC(=O)NCC(=O)N[C@H](C(=O)N[C@H](C(=O)N[C@@H](CCCCN)C(=O)N[C@@H](CC(N)=O)C(=O)N[C@@H](CC(N)=O)C(=O)N[C@@H](Cc1ccccc1)C(=O)N[C@H](C(=O)N1CCC[C@H]1C(=O)N[C@H](C(=O)N[C@@H](CC(N)=O)C(=O)N[C@H](C(=O)NCC(=O)N[C@@H](CO)C(=O)N[C@@H](CCCCN)C(=O)N[C@@H](C)C(=O)N[C@@H](Cc1ccccc1)C(N)=O)C(C)C)[C@@H](C)O)C(C)C)C(C)C)C(C)C [h alpha-CGRP] |  | 0.08 |
| CC(C)[C@H](NC(=O)[C@H](CC(N)=O)NC(=O)[C@@H](NC(=O)[C@@H]1CCCN1C(=O)[C@@H](NC(=O)[C@@H](N)Cc1ccccc1)C(C)C)[C@@H](C)O)C(=O)NCC(=O)N1CCC[C@H]1C(=O)N[C@@H](Cc1ccccc1)C(=O)N[C@@H](C)C(=O)N[C@@H](Cc1ccccc1)C(N)=O [[Pro34,Phe35]h alpha-CGRP27-37] (H-FVPTNVGPFAF-NH2) | 50.7 | 118 |
| CC(C)C[C@H](NC(=O)CNC(=O)[C@H](C)NC(=O)[C@H](CC(C)C)NC(=O)[C@H](CCCNC(=N)N)NC(=O)[C@H](Cc1cnc[nH]1)NC(=O)[C@@H](NC(=O)[C@@H](NC(=O)[C@@H]1NC(=O)[C@H]([C@@H](C)O)NC(=O)[C@H](C)NC(=O)[C@H]([C@@H](C)O)NC(=O)[C@H](CC(=O)O)NC(=O)[C@H](NC(=O)[C@H](C)N)C(C)(C)SSC1(C)C)C(C)C)[C@@H](C)O)C(=O)N[C@@H](CC(C)C)C(=O)N[C@@H](CO)C(=O)N[C@@H](CCCNC(=N)N)C(=O)N[C@@H](CO)C(=O)NCC(=O)NCC(=O)N[C@H](C(=O)N[C@H](C(=O)N[C@@H](CCCCN)C(=O)N[C@@H](CC(N)=O)C(=O)N[C@@H](CC(N)=O)C(=O)N[C@@H](Cc1ccccc1)C(=O)N[C@H](C(=O)N1CCC[C@H]1C(=O)N[C@H](C(=O)N[C@@H](CC(N)=O)C(=O)N[C@H](C(=O)NCC(=O)N[C@@H](CO)C(=O)N[C@@H](CCCCN)C(=O)N[C@@H](C)C(=O)N[C@@H](Cc1ccccc1)C(N)=O)C(C)C)[C@@H](C)O)C(C)C)C(C)C)C(C)C [[D-Pen2,7]h alpha-CGRP] | 21 | 15.2 |
| CC(C)C[C@H](NC(=O)[C@H](CCCNC(=N)N)NC(=O)[C@H](Cc1cnc[nH]1)NC(=O)[C@@H](NC(=O)[C@@H](NC(=O)[C@@H]1CSSC[C@H](NC(=O)[C@H](C)N)C(=O)N[C@@H](CC(=O)O)C(=O)N[C@@H]([C@@H](C)O)C(=O)N[C@@H](C)C(=O)N[C@@H]([C@@H](C)O)C(=O)N1)C(C)C)[C@@H](C)O)C(=O)N[C@@H](C)C(=O)N1CCC[C@H]1C(=O)N[C@@H](CC(C)C)C(=O)N[C@@H](CC(C)C)C(=O)N[C@@H](CO)C(=O)N[C@@H](CCCNC(=N)N)C(=O)N[C@@H](CO)C(=O)NCC(=O)NCC(=O)N[C@H](C(=O)N[C@H](C(=O)N[C@@H](CCCCN)C(=O)N[C@@H](CC(N)=O)C(=O)N[C@@H](CC(N)=O)C(=O)N[C@@H](Cc1ccccc1)C(=O)N[C@H](C(=O)N1CCC[C@H]1C(=O)N[C@H](C(=O)N[C@@H](CC(N)=O)C(=O)N[C@H](C(=O)NCC(=O)N[C@@H](CO)C(=O)N[C@@H](CCCCN)C(=O)N[C@@H](C)C(=O)N[C@@H](Cc1ccccc1)C(N)=O)C(C)C)[C@@H](C)O)C(C)C)C(C)C)C(C)C [[Pro14]h alpha-CGRP] (HELM PEPTIDE1{A.C.D.T.A.T.C.V.T.H.R.L.A.P.L.L.S.R.S.G.G.V.V.K.N.N.F.V.P.T.N.V.G.S.K.A.F.[am]}$PEPTIDE1,PEPTIDE1,2:R3-7:R3$$$V2.0) | 9 | 5.5 |

More lines, now with the values ahead:

| Ki [1] [nM] | Ki [2] [nM] | SMILES |
| --- | --- | --- |
| 0.27 | 0.072 | CC(C)C[C@H](NC(=O)CNC(=O)[C@H](C)NC(=O)[C@H](CC(C)C)NC(=O)[C@H](CCCN=C(N)N)NC(=O)[C@H](Cc1cnc[nH]1)NC(=O)[C@@H](NC(=O)[C@@H](NCc1ccc(O)cc1)C(C)C)[C@@H](C)O)C(=O)N[C@@H](CC(C)C)C(=O)N[C@@H](CO)C(=O)N[C@@H](CCCN=C(N)N)C(=O)N[C@@H](CO)C(=O)NCC(=O)NCC(=O)N[C@H](C(=O)N[C@H](C(=O)N[C@@H](CCCCN)C(=O)N[C@@H](CC(N)=O)C(=O)N[C@@H](CC(N)=O)C(=O)N[C@@H](Cc1ccccc1)C(=O)N[C@H](C(=O)N1CCC[C@H]1C(=O)N[C@H](C(=O)N[C@@H](CC(N)=O)C(=O)N[C@H](C(=O)NCC(=O)N[C@@H](CO)C(=O)N[C@@H](CCCCN)C(=O)N[C@@H](C)C(=O)N[C@@H](Cc1ccccc1)C(N)=O)C(C)C)[C@@H](C)O)C(C)C)C(C)C)C(C)C [[N-benzol]h alpha-CGRP8-37] |
|  | 1.3 | CC(=O)N[C@H](C(=O)N[C@H](C(=O)N[C@@H](Cc1cnc[nH]1)C(=O)N[C@@H](CCCN=C(N)N)C(=O)N[C@@H](CC(C)C)C(=O)N[C@@H](C)C(=O)NCC(=O)N[C@@H](CC(C)C)C(=O)N[C@@H](CC(C)C)C(=O)N[C@@H](CO)C(=O)N[C@@H](CCCN=C(N)N)C(=O)N[C@@H](CO)C(=O)NCC(=O)NCC(=O)N[C@H](C(=O)N[C@H](C(=O)N[C@@H](CCCCN)C(=O)N[C@@H](CC(N)=O)C(=O)N[C@@H](CC(N)=O)C(=O)N[C@@H](Cc1ccccc1)C(=O)N[C@H](C(=O)N1CCC[C@H]1C(=O)N[C@H](C(=O)N[C@@H](CC(N)=O)C(=O)N[C@H](C(=O)NCC(=O)N[C@@H](CO)C(=O)N[C@@H](CCCCN)C(=O)N[C@@H](C)C(=O)N[C@@H](Cc1ccccc1)C(N)=O)C(C)C)[C@@H](C)O)C(C)C)C(C)C)C(C)C)[C@@H](C)O)C(C)C [[N-acetyl]h alpha-CGRP8-37] |
| 32.7 | 37.9 | CC(C)C[C@H](NC(=O)CNC(=O)[C@H](C)NC(=O)[C@H](CC(C)C)NC(=O)[C@H](CCCN=C(N)N)NC(=O)[C@H](Cc1cnc[nH]1)NC(=O)[C@@H](NC(=O)[C@@H](N)C(C)C)[C@@H](C)O)C(=O)N[C@@H](CC(C)C)C(=O)N[C@@H](CO)C(=O)N[C@@H](CCCN=C(N)N)C(=O)N[C@@H](CO)C(=O)NCC(=O)NCC(=O)N[C@H](C(=O)N[C@H](C(=O)N[C@@H](CCCCN)C(=O)N[C@@H](CC(N)=O)C(=O)N[C@@H](CC(N)=O)C(=O)N[C@@H](Cc1ccccc1)C(=O)N[C@H](C(=O)N1CCC[C@H]1C(=O)N[C@H](C(=O)N[C@@H](CC(N)=O)C(=O)N[C@H](C(=O)NCC(=O)N[C@@H](CO)C(=O)N[C@@H](CCCCN)C(=O)N[C@@H](C)C(=O)N[C@@H](CC1CCCCC1)C(N)=O)C(C)C)[C@@H](C)O)C(C)C)C(C)C)C(C)C [[Cha37]h alpha-CGRP8-37] (HELM PEPTIDE1{V.T.H.R.L.A.G.L.L.S.R.S.G.G.V.V.K.N.N.F.V.P.T.N.V.G.S.K.A.[Cha].[am]}$$$$V2.0) |
| 500 | 1020 | CC(C)C[C@H](NC(=O)CNC(=O)[C@H](C)NC(=O)[C@H](CC(C)C)NC(=O)[C@H](CCCN=C(N)N)NC(=O)[C@H](Cc1cnc[nH]1)NC(=O)[C@@H](NC(=O)[C@@H](N)C(C)C)[C@@H](C)O)C(=O)N[C@@H](CC(C)C)C(=O)N[C@@H](CO)C(=O)N[C@@H](CCCN=C(N)N)C(=O)N[C@@H](CO)C(=O)NCC(=O)NCC(=O)N[C@H](C(=O)N[C@H](C(=O)N[C@@H](CCCCN)C(=O)N[C@@H](CC(N)=O)C(=O)N[C@@H](CC(N)=O)C(=O)N[C@@H](Cc1ccccc1)C(=O)N[C@H](C(=O)N1CCC[C@H]1C(=O)N[C@H](C(=O)N[C@@H](CC(N)=O)C(=O)N[C@H](C(=O)NCC(=O)N[C@@H](CO)C(=O)N[C@@H](CCCCN)C(=O)N[C@@H](C)C(=O)N[C@@H](C)C(N)=O)C(C)C)[C@@H](C)O)C(C)C)C(C)C)C(C)C [[Ala37]h alpha-CGRP8-37] (H-VTHRLAGLLSRSGGVVKNNFVPTNVGSKAA-NH2) |
|  | 5.7 | CC(C)C[C@H](NC(=O)CNC(=O)[C@H](C)NC(=O)[C@H](CC(C)C)NC(=O)[C@H](CCCNC(=N)N)NC(=O)[C@H](Cc1cnc[nH]1)NC(=O)[C@@H](NC(=O)[C@@H](N)C(C)C)[C@@H](C)O)C(=O)N[C@@H](CC(C)C)C(=O)N[C@@H](CO)C(=O)N[C@@H](CCCNC(=N)N)C(=O)N[C@@H](CO)C(=O)NCC(=O)NCC(=O)N[C@H](C(=O)N[C@H](C(=O)N[C@@H](CCCCN)C(=O)N[C@@H](CC(N)=O)C(=O)N[C@@H](CC(N)=O)C(=O)N[C@@H](Cc1ccccc1)C(=O)N[C@H](C(=O)N1CCC[C@H]1C(=O)N[C@H](C(=O)N[C@@H](CC(N)=O)C(=O)N[C@H](C(=O)NCC(=O)N[C@@H](CO)C(=O)N[C@@H](CCCCN)C(=O)N[C@@H](C)C(=O)N[C@@H](Cc1ccccc1)C(N)=O)C(C)C)[C@@H](C)O)C(C)C)C(C)C)C(C)C |
